From US20250089715A1, “INSECTICIDAL MIXTURES” (ADAMA MAKHTESHIM LTD., priority 2021, published 2025)

What was measured:
[1] = system: Spodoptera littoralis larvae; test: Leaf-dip feeding bioassay on Spodoptera littoralis larvae (castor bean leaves); format: in vivo; details: for Lethal concentrations for Spodoptera littoralis, LD50 / Lethal concentrations for Spodoptera littoralis, LD90: early 3rd-instar larvae, treated castor bean leaves, probit analysis
Description: (§1) The laboratory susceptible strain of S. littoralis is collected in 2000 from a cotton field in Bet She'an area ([…] part of Israel) and is reared on castor bean (Ricinus communis) leaves under standard rearing conditions of 27° C., 55% RH and 14 h photoperiod. Field strain of H. armigera was collected in June 2020 from cotton fields near Rehovot area and was reared on premixed diet (Ward's Stonefly Heliothis Diet, USA) under standard rearing conditions of 27° C., 55% RH and 14 h photoperiod.
Assays with S. littoralis larvae were done as described by Ishaaya et al. (1996, 2003). Castor bean leaves were dipped in various concentrations of the test compounds (and water as control), and were air dried for 2 h under controlled room conditions. The treated leaves were transferred into foam plastic (“Kalkar”) cups containing a layer of sawdust to avoid humidity. The treated leaves were offered to early 3rd-instar (12±1 mg) for 4-day feeding of the laboratory susceptible strain and for additional 4 days on untreated leaves. Larval mortality was determined and recorded on day 4 and 8 or as indicated, and larval weight gain (LWG) was determined on day 4 and 8 or as indicated.
(§2) To obtain a concentration-mortality line, at least three concentrations were used for most of the bioassays. LC values were estimated by probit analysis (POLO, 1987). Control mortality was corrected using Abbott's (1925) formula.
(§3) Firstly, all the compounds were assessed alone against the larvae, and then, binary mixtures of chlorantraniliprole with tau-fluvalinate were evaluated in different ratios.

[2] = system: Helicoverpa armigera (Heliothis) larvae; test: Leaf-dip bioassay on Helicoverpa armigera larvae (cotton leaves); format: in vivo; details: for Lethal concentrations for Helicoverpa armigera (Heliothis), LD50 / Lethal concentrations for Helicoverpa armigera (Heliothis), LD90: third instar larvae, treated cotton leaves, probit analysis
Description: as §1
Tender leaves of cotton were dipped in aqueous concentrations of a formulation or in water as control. After 15 seconds of dipping, the cotton leaves were then allowed to air dry for 2 h. Afterwards, Heliothis larvae (third instars, 8-10 mm), reared in a controlled growth room (27±2° C. and 50% RH with a photoperiod of 14:10 h light:dark) were put inside Petri dishes on treated cotton leaves; in addition, filter papers were also added to the dishes (to avoid too much moisture). The experiments were done on 5-10 larvae for each concentration and were repeated three times, on separate days.
Mortality of the larvae in comparison with the control was determined, two and five-six days after exposure to the formulations.
as §2, §3

Structure (SMILES) | mortality at 0.05 ppm ([1]; Spodoptera littoralis, in Ricinus communis, 0.05 ppm, alone, read-out: S. littoralis mortality, %) [%] | mortality at 0.1 ppm ([1]; Spodoptera littoralis, in Ricinus communis, 0.1 ppm, alone, read-out: S. littoralis mortality, %) [%] | Lethal concentrations for Spodoptera littoralis, LD50 [1] | Lethal concentrations for Spodoptera littoralis, LD90 [1] | mortality at 0.05 ppm ([2]; Helicoverpa armigera, 0.05 ppm, alone, read-out: H. armigera mortality, %) [%] | mortality at 0.1 ppm ([2]; Helicoverpa armigera, 0.1 ppm, alone, read-out: H. armigera mortality, %) [%] | Lethal concentrations for Helicoverpa armigera (Heliothis), LD50 [2] | Lethal concentrations for Helicoverpa armigera (Heliothis), LD90 [2] | mortality at 50 ppm ([1]; Spodoptera littoralis, in Ricinus communis, 50 ppm, alone, read-out: S. littoralis mortality, %) [%] | mortality at 100 ppm ([1]; Spodoptera littoralis, in Ricinus communis, 100 ppm, alone, read-out: S. littoralis mortality, %) [%] | mortality at 50 ppm ([2]; Helicoverpa armigera, 50 ppm, alone, read-out: H. armigera mortality, %) [%] | mortality at 100 ppm ([2]; Helicoverpa armigera, 100 ppm, alone, read-out: H. armigera mortality, %) [%]
CNC(=O)c1cc(Cl)cc(C)c1NC(=O)c1cc(Br)nn1-c1ncccc1Cl [Chlorantraniliprole] | 27 | 48 | LD50 = 0.1 ppm | LD90 = 1 ppm | 18 | 40 | LD50 ≥ 0.1 ppm | LD90 ≥ 1 ppm | – | – | – | –
CC(C)[C@@H](Nc1ccc(C(F)(F)F)cc1Cl)C(=O)OC(C#N)c1cccc(Oc2ccccc2)c1 (stereo partly shown) [Tau-fluvalinate] | – | – | LD50 ≥ 100 ppm | LD90 ≥ 500 ppm | – | – | LD50 ≥ 100 ppm | LD90 ≥ 500 ppm | 20 | 40 | 30 | 45
